According to patent US8541377B2, “Optimized dengue virus entry inhibitory peptide (DN81)” (Florida Gulf Coast University, priority 2007, dated 2013):
Residues, ends and D or L forms follow the SMILES beside them.

Tested on: LLCMK-2 cells
Conditions: confluent LLCMK-2 monolayers; concentration ranges that showed viral inhibition; vs medium only controls, p>0.05; FIG. 4
Description: The cytotoxicity of the chemistries was measured by monitoring mitochondrial reductase activity using the TACS™ MTT cell proliferation assay (R&D Systems, Inc., Minneapolis, Minn.) according to the manufacturer's instructions. Dilutions of chemistries in serum-free DMEM were added to confluent monolayers of LLCMK-2 cells in 96-well plates for 1 h at 37° C., similar to the focus forming inhibition assays, and subsequently incubated at 37° C. with 5% (v/v) CO2 for 24 h. Absorbance at 560 nm was measured using a Tecan GeniosPro plate reader (Tecan US, Durham, N.C.).

## CSCC[C@H](NC(=O)[C@H](Cc1c[nH]c2ccccc12)NC(=O)[C@@H](N)CCCNC(=N)N)C(=O)N[C@H](C(=O)N[C@@H](Cc1c[nH]c2ccccc12)C(=O)N[C@@H](CCCNC(=N)N)C(=O)N[C@@H](Cc1c[nH]cn1)C(=O)N[C@@H](Cc1c[nH]c2ccccc12)C(=O)N[C@@H](Cc1ccccc1)C(=O)N[C@@H](Cc1c[nH]cn1)C(=O)N[C@@H](CCCNC(=N)N)C(=O)N[C@@H](CC(C)C)C(=O)N[C@@H](CCCNC(=N)N)C(=O)N[C@@H](CC(C)C)C(=O)N1CCC[C@H]1C(=O)N[C@@H](Cc1ccc(O)cc1)C(=O)N[C@@H](CC(N)=O)C(=O)N1CCC[C@H]1C(=O)NCC(=O)N[C@@H](CCCCN)C(=O)N[C@@H](CC(N)=O)C(=O)N[C@@H](CCCCN)C(=O)N[C@@H](CCC(N)=O)C(=O)N[C@@H](CC(N)=O)C(=O)N[C@@H](CCC(N)=O)C(=O)N[C@@H](CCC(N)=O)C(=O)N[C@@H](Cc1c[nH]c2ccccc12)C(=O)N1CCC[C@H]1C(=O)O)C(C)C [DN81] (H-RWMVWRHWFHRLRLPYNPGKNKQNQQWP-OH)
  toxicity (mitochondrial reductase activity of target cells): not due to toxicity
